# Key:
# Gal4DBD/AaEcR (DEF) = target: T1, Gal4DBD/AaEcR (DEF) (Aedes aegypti, UniProt P49880); test: cell-based; format: cell-based; settings: 33 μM; 3T3 cells; 48 h; average of two wells
# T1 construct: The wildtype D, E, and F domains from mosquito Aedes aegypti EcR; expressed in transfected cells; host or cells: 3T3 cells
# Method: 3T3 cells were trypsinized and plated at 2.5×10^3 cells/well on a 96-well plate. After incubation for 24 h at 37° C. under 5% CO2, cells were transfected with the Gal4DBD/AaEcR (DEF) gene expression cassette and the reporter plasmid, pFRLuc, containing a 5× GAL4 response element and the firefly luciferase gene in serum free media using Superfect (Qiagen). After transfection for 4 h at 37° C., the cells were treated with ligand in serum media. […] Single dose testing was performed at 33 μM.
# [1] = target: T2, Bombyx mori EcR (VP16-BmEcR, CVBE) (Bombyx mori, UniProt P49881); test: Z3 assay (HEK-293 clone Z3 with CVBE and 6x EcRE LacZ, β-galactosidase reporter); format: cell-based; settings: 48 h, average of two wells
# T2 construct: expressed in transfected cells
# T2 sequence (P49881 86-606): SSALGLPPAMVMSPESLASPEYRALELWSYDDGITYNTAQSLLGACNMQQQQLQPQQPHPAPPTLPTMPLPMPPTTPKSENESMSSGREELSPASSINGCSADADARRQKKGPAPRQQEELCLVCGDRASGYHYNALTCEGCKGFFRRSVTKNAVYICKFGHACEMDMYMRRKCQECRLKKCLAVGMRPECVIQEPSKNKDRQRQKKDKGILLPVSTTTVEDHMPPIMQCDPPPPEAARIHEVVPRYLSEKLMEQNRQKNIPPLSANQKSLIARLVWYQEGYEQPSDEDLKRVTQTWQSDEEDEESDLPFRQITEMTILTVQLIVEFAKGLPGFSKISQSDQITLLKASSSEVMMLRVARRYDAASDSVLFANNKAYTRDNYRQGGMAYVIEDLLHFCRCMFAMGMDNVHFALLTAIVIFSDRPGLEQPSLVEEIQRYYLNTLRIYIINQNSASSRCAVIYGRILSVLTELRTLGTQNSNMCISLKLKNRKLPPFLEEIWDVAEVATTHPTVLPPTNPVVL
# Description: Dr. F. Gage provided a population of stably transformed cells containing CVBE and 6× EcRE as described in (Suhr et. al. 1998). Human 293 kidney cells, also referred to as HEK-293 cells, were sequentially infected with retroviral vectors encoding first the switch construct CVBE, and subsequently the reporter construct 6× EcRE Lac Z. The switch construct contained the coding sequence for amino acids 26-546 from Bombyx nori EcR (BE) (Iatrou) inserted in frame and downstream of the VP16 transactivation domain (VBE). A synthetic ATG start codon was placed under the control of cytomegalovirus (CVBE) immediate early promoter and flanked by long terminal repeats (LTR). The reporter-construct contained six copies of the ecdysone response element (EcRE) binding site placed upstream of LacZ and flanked on both sides with LTR sequences (6× EcRE).
# Dilution cloning was used to isolate individual clones. Clones were selected using 450 μg/ml G418 and 100 ng/ml puromycin. Individual clones were evaluated based on their response in the presence and absence of test ligands.
# Human 293 kidney cells stably transformed with CVBE and 6× EcRE lack were maintained in Minimum Essential Medium (Mediates, 10-010-CV) containing 10%.FBS (Life Technologies, 26140-087),[…] G418 (Mediates, 30-234-CR), and […] (Sigma, P-7255), at 37° C. in an atmosphere containing 5% CO2 and were subculture when they reached 75% confluence.
# Z3 cells were seeded into 96-well tissue culture plates at a concentration of 2.5×10^3 cells per well and incubated at 37° C. in 5% CO2 for twenty-four hours. Stock solutions of ligands were prepared in DMSO. Ligand stock solutions were diluted 100.fold in media and 50 μL of this diluted ligand solution (33 μM) was added to cells.
# Reporter gene expression was evaluated 48 hours after treatment of cells, β-galactosidase activity was measured using Gal Screen™ bioluminescent reporter gene assay system from Tropix (GSY1000).
# Flanking both constructs are long terminal repeats, G418 and puromycin are selectable markers, CMV is the cytomegalovirus promoter, VBE is coding sequence for amino acids 26-546 from Bombyx mori EcR inserted downstream of the VP16 transactivation domain, 6× EcRE is six copies of the ecdysone response element, lacZ encodes for the reporter enzyme β-galactosidase.
# T1 sequence (P28704 286-520 A311G/G315S/G445S/I449V): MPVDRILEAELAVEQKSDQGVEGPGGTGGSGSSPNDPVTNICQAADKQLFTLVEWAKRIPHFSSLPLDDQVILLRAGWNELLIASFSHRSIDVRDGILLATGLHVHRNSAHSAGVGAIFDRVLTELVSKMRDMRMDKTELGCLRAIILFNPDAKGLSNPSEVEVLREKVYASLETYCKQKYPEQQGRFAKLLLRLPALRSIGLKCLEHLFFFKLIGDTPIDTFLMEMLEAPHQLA
# T1 sequence (P49880 405-776): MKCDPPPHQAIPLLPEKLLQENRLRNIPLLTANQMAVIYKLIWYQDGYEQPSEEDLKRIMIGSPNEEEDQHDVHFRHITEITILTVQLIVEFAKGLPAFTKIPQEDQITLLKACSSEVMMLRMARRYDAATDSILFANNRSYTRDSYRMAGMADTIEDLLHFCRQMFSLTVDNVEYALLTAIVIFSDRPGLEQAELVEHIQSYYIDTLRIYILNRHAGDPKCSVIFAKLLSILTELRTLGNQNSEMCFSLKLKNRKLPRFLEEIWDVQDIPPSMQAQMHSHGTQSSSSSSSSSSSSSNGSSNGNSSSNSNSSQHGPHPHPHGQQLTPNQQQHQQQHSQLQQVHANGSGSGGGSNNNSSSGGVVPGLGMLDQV
Structure (SMILES),"Fold Induction Average, AA_3T3V1 Assay 33 μM (Gal4DBD/AaEcR (DEF)) [fold]","Fold Induction Average, Z3V1 Assay 33 μM [1] [fold]"
C[C@H]1C[C@@H](Nc2ccc(F)cc2)c2cc(F)ccc2N1C(=O)c1ccc(F)c(F)c1 (relative stereo) [Compound I-24],132,7
C[C@H]1C[C@@H](Nc2ccc(F)cc2)c2cc(F)ccc2N1C(=O)c1ccc(C(F)(F)F)c(F)c1 (relative stereo) [Compound I-25],147,1
CCc1ccc(C(=O)N2c3ccc(C)cc3[C@@H](Nc3ccc(C)cc3)C[C@@H]2C)cc1 (relative stereo) [Compound I-64],681,1
C[C@H]1C[C@H](Nc2ccc(F)cc2)c2cc(F)ccc2N1C(=O)c1ccc(Cl)cc1 (relative stereo) [Compound I-65],345,82
CCc1ccc(C(=O)N2c3ccc(F)cc3[C@@H](Nc3ccc(F)cc3)C[C@@H]2C)cc1 (relative stereo) [Compound I-66],813,206
C[C@H]1C[C@H](Nc2ccccc2)c2ccccc2N1C(=O)c1ccccc1 (relative stereo) [Compound I-67],20,1
C[C@H]1C[C@H](Nc2ccccc2)c2ccccc2N1C(=O)c1cccc(F)c1 (relative stereo) [Compound I-68],282,8
C[C@H]1C[C@H](Nc2ccccc2)c2ccccc2N1C(=O)c1ccccc1C(F)(F)F (relative stereo) [Compound I-69],2,1
C[C@H]1C[C@H](Nc2ccccc2)c2ccccc2N1C(=O)c1cccc(C(F)(F)F)c1 (relative stereo) [Compound I-70],376,26
C[C@H]1C[C@H](Nc2ccccc2)c2ccccc2N1C(=O)c1ccc(C(F)(F)F)cc1 (relative stereo) [Compound I-71],291,2
Cc1ccc(N[C@H]2C[C@H](C)N(C(=O)c3ccccc3)c3ccc(C)cc32)cc1 (relative stereo) [Compound I-72],114,1
Cc1ccc(N[C@H]2C[C@H](C)N(C(=O)c3cccc(F)c3)c3ccc(C)cc32)cc1 (relative stereo) [Compound I-73],207,1
Cc1ccc(N[C@H]2C[C@H](C)N(C(=O)c3ccccc3C(F)(F)F)c3ccc(C)cc32)cc1 (relative stereo) [Compound I-74],22,1
Cc1ccc(N[C@H]2C[C@H](C)N(C(=O)c3cccc(C(F)(F)F)c3)c3ccc(C)cc32)cc1 (relative stereo) [Compound I-75],13,2
Cc1ccc(N[C@H]2C[C@H](C)N(C(=O)c3ccc(C(F)(F)F)cc3)c3ccc(C)cc32)cc1 (relative stereo) [Compound I-76],741,1
C[C@H]1C[C@H](Nc2ccc(F)cc2)c2cc(F)ccc2N1C(=O)c1cccc(F)c1 (relative stereo) [Compound I-77],272,153

Structure (SMILES),"Fold Induction Average, AA_3T3V1 Assay 33 μM (Gal4DBD/AaEcR (DEF)) [fold]","Fold Induction Average, Z3V1 Assay 33 μM [1] [fold]"
C[C@H]1C[C@H](Nc2ccc(F)cc2)c2cc(F)ccc2N1C(=O)c1ccccc1C(F)(F)F (relative stereo) [Compound I-78],33,3
C[C@H]1C[C@H](Nc2ccc(F)cc2)c2cc(F)ccc2N1C(=O)c1cccc(C(F)(F)F)c1 (relative stereo) [Compound I-79],595,137
C[C@H]1C[C@H](Nc2ccc(F)cc2)c2cc(F)ccc2N1C(=O)c1ccc(C(F)(F)F)cc1 (relative stereo) [Compound I-80],914,37
COc1cccc(C(=O)N2c3ccccc3[C@@H](Nc3ccccc3)C[C@@H]2C)c1 (relative stereo) [Compound I-81],9,1
Cc1ccc(C(=O)N2c3ccccc3[C@@H](Nc3ccccc3)C[C@@H]2C)cc1 (relative stereo) [Compound I-82],79,1
COc1ccc(C(=O)N2c3ccccc3[C@@H](Nc3ccccc3)C[C@@H]2C)cc1 (relative stereo) [Compound I-83],345,8
COC(=O)c1ccc(C(=O)N2c3ccccc3[C@@H](Nc3ccccc3)C[C@@H]2C)cc1 (relative stereo) [Compound I-84],508,3
Cc1ccc(N[C@H]2C[C@H](C)N(C(=O)c3cccc(C)c3)c3ccc(C)cc32)cc1 (relative stereo) [Compound I-85],3,1
Cc1ccc(N[C@H]2C[C@H](C)N(C(=O)c3ccc(C)cc3)c3ccc(C)cc32)cc1 (relative stereo) [Compound I-87],250,1
COc1ccc(C(=O)N2c3ccc(C)cc3[C@@H](Nc3ccc(C)cc3)C[C@@H]2C)cc1 (relative stereo) [Compound I-88],213,1
COC(=O)c1ccc(C(=O)N2c3ccc(C)cc3[C@@H](Nc3ccc(C)cc3)C[C@@H]2C)cc1 (relative stereo) [Compound I-89],30,1
Cc1cccc(C(=O)N2c3ccc(F)cc3[C@@H](Nc3ccc(F)cc3)C[C@@H]2C)c1 (relative stereo) [Compound I-90],433,33
COc1cccc(C(=O)N2c3ccc(F)cc3[C@@H](Nc3ccc(F)cc3)C[C@@H]2C)c1 (relative stereo) [Compound I-91],542,107
Cc1ccc(C(=O)N2c3ccc(F)cc3[C@@H](Nc3ccc(F)cc3)C[C@@H]2C)cc1 (relative stereo) [Compound I-92],229,100
COc1ccc(C(=O)N2c3ccc(F)cc3[C@@H](Nc3ccc(F)cc3)C[C@@H]2C)cc1 (relative stereo) [Compound I-93],378,87
C[C@H]1C[C@H](Nc2ccccc2)c2ccccc2N1C(=O)c1ccc(C(C)(C)C)cc1 (relative stereo) [Compound I-134],39,1

# Reference: patent US20050228016A1, “TETRAHYDROQUINOLINES FOR MODULATING THE EXPRESSION OF EXOGENOUS GENES VIA AN ECDYSONE RECEPTOR COMPLEX” (priority 2002, published 2005)
